From patent US20080096967A1, “Formulations for Injection of Catecholic Butanes, Including Ndga Compounds, Into Animals” (priority 2005, published 2008)
Like-named read-outs stand apart in the source and are kept apart here. Marks after values point to notes of the source that are not given here.

Assays:
[1] = Solubility of M4N in non-ionic surfactants (Table 21, visual inspection); assay type: physicochemical
Experimental: A 10 mL solution of M4N at a concentration of about 60 mg/mL in Tween® 20 was made as follows. About 10 mL of Tween® 20 were added to a glass beaker containing a stir bar. The beaker was placed on a magnetic plate and the stir bar was set to stir at medium speed. About 600 mg of M4N were slowly added to the Tween® 20 in the center of the beaker with the aid of a spatula to prevent M4N from sticking to the beaker wall. The M4N/Tween® 20 mixture was stirred for 2 hr or until all M4N had dissolved or was uniformly suspended without any clumps being present. The M4N/Tween® 20 mixture was heated at about 60° C. for about 30 min. (or longer if a larger volume of solution was desired, for example, 1 hr at 60° C. for 500 mL of the M4N/Tween® 20 mixture), or longer as need to ensure complete dissolution of M4N. […] The final M4N/Tween® 20 solution was stored at room temperature and was kept protected from light. If crystals were to form during storage, the M4N/Tween® 20 solution could be heated again at 60° C. for about 1 hr, with stirring, on a hot magnetic plate or until all M4N was dissolved back in solution.
This process may be scaled up or down to obtain the requisite volume or concentration of M4N and the heating temperature may be increased or decreased to achieve dissolution of M4N. Formulations containing M4N in other non-ionic surfactant, ionic surfactants or amphiphilic molecules may be similarly made, such as, for example, by substituting Tween® 20 in the process described above with Tween® 80, other solubilizing agents, and combinations thereof.

[2] = Human Phase 0 three-way crossover microdose pharmacokinetic study of 14C-labelled M4N (AMS); assay type: in vivo
Text: This study was designed to assess the absorption of […] when administered to humans as a sub-therapeutic dose either as a single oral dose under fed and fasted conditions or a single intravenous dose (Regimens A-C, respectively, in Table 24). […] During the course of each study period, pharmacokinetic blood samples were taken at specified time points after dosing and urine was collected over pre-defined time intervals. The subjects were able to leave the clinical unit after the completion of study specific procedures at 24 hours post-dose. In this study, […] was administered to humans in a 100 μg quantity. […] Each oral administration of […] consisted of 0.1 mg of ^14C labeled […] and 376.8 mg of glycerol monooleate in a size 0 gelatin capsule. […] The baseline levels of […] were corrected for any residual […] remaining in the subjects following the periods between dosing so as not to inflate the levels of […] for any subsequent dosing.

[3] = 7-Day intravenous infusion study in Beagle dogs: toxicokinetic serum analysis; assay type: in vivo
Experimental: This study was conducted to evaluate the toxicokinetic profile of M4N formulated in 30% HP-β-CD and 25% PEG 300 when administered as a single intravenous infusion dose for seven consecutive days in beagle dogs. This study constitutes the first study of this particular formulation of M4N in dogs and was executed to evaluate the toxicity and compare tolerability of a diluted formulation (10 mg/mL versus 5 mg/mL).
A total of twelve beagle dogs (8 male/4 female) were dosed with M4N via a 54-minute (Group 2) or 108-minute (Groups 1, 3 and 4) intravenous infusion. All animals received seven doses, one per day over seven consecutive days.
The following parameters were evaluated: clinical observations and body weights. Test article analysis was performed on Study Days 1 and 7, blood samples (targeting a volume of 2.0 mL) were collected from each animal from an appropriate vessel at the following time points: […]

Which “Stability at Room Temperature” value ([1]; 50% Tween ® 20, 50% PEG 400, M4N 30 mg/mL) does the source give for COc1ccc(C[C@@H](C)[C@@H](C)Cc2ccc(OC)c(OC)c2)cc1OC [Formulation M4N, meso-1,4-bis(3,4-dimethoxyphenyl)-2,3-dimethylbutane] here?
The value was >3 days.

And the “Dissolution After Heating” value ([1]; 50% Tween ® 20, 50% PEG 400, M4N 30 mg/mL, heating at 65° C.)?
Its value is “Y at 65 °C”.

What about the “Stability at Room Temperature” value ([1]; 50% Tween ® 20, 50% PEG 400, M4N 40 mg/mL) of the same molecule?
The value was >3 days.

And the “Dissolution After Heating” value ([1]; 50% Tween ® 20, 50% PEG 400, M4N 40 mg/mL, heating at 65° C.)?
Its value is “Y at 65 °C”.

What about the “Stability at Room Temperature” value ([1]; 50% Tween ® 20, 50% PEG 400, M4N 50 mg/mL) of the same molecule?
The value was >3 days.

What about the “Dissolution After Heating” value ([1]; 50% Tween ® 20, 50% PEG 400, M4N 50 mg/mL, heating at 65° C.) of the same molecule?
The value was “Y at 65 °C”.

And the “Stability at Room Temperature” value ([1]; 50% Tween ® 20, 50% PEG 400, M4N 60 mg/mL)?
The value was >3 days.

What about the “Dissolution After Heating” value ([1]; 50% Tween ® 20, 50% PEG 400, M4N 60 mg/mL, heating at 65° C.) of the same molecule?
The value was “Y at 65 °C”.

What about the “stable at room temperature” value ([1]; 50% Tween® 20 and 50% PEG 400, after cooling) of the same molecule?
Its value is “more than 3 days”.

What about the “Stability at Room Temperature” value ([1]; Tween ® 20 100% (v/v), M4N 1 mg/mL) of the same molecule?
The value was >7 days.

And the “Stability at Room Temperature” value ([1]; Tween ® 20 100% (v/v), M4N 10 mg/mL)?
The value was >7 days.

And the “Dissolution After Heating” value ([1]; Tween ® 20 100% (v/v), M4N 10 mg/mL, heating at 50° C.)?
The value was “Y at 50 °C”.

What about the “Stability at Room Temperature” value ([1]; Tween ® 20 100% (v/v), M4N 20 mg/mL) of the same molecule?
Its value is >7 days.

What about the “Dissolution After Heating” value ([1]; Tween ® 20 100% (v/v), M4N 20 mg/mL, heating at 50° C.) of the same molecule?
Its value is “Y at 50 °C”.

What about the “Stability at Room Temperature” value ([1]; Tween ® 20 100% (v/v), M4N 40 mg/mL) of the same molecule?
Its value is <3 days.

And the “Dissolution After Heating” value ([1]; Tween ® 20 100% (v/v), M4N 40 mg/mL, heating at 50° C.)?
Its value is “Y at 50 °C”.

And the “Stability at Room Temperature” value ([1]; Tween ® 20 100% (v/v), M4N 60 mg/mL)?
The value was <3 days.

What about the “Dissolution After Heating” value ([1]; Tween ® 20 100% (v/v), M4N 60 mg/mL, heating at 50° C.) of the same molecule?
The value was “Y at 50 °C”.

What about the “Dissolution After Heating” value ([1]; Tween ® 20 100% (v/v), M4N 80 mg/mL, heating at 50° C.) of the same molecule?
The value was “Y at 50 °C”.

And the “Dissolution After Heating” value ([1]; Tween ® 20 100% (v/v), M4N 100 mg/mL, heating at 50° C.)?
The value was “Y at 50 °C”.

And the “Stability at Room Temperature” value ([1]; Tween ® 80 100% (v/v), M4N 1 mg/mL)?
Its value is >3 days.

What about the “Stability at Room Temperature” value ([1]; Tween ® 80 100% (v/v), M4N 10 mg/mL) of the same molecule?
The value was >3 days.

What about the “Dissolution After Heating” value ([1]; Tween ® 80 100% (v/v), M4N 10 mg/mL, heating at 50° C.) of the same molecule?
The value was “Y at 50 °C”.

And the “Stability at Room Temperature” value ([1]; Tween ® 80 100% (v/v), M4N 50 mg/mL)?
The value was <1 days.

What about the “Dissolution After Heating” value ([1]; Tween ® 80 100% (v/v), M4N 50 mg/mL, heating at 50° C.) of the same molecule?
Its value is “Y at 50 °C”.

And the “stable at room temperature” value ([1]; Tween® 20, M4N 1 mg/mL)?
The value was “more than 7 days”.

And the “stable at room temperature” value ([1]; Tween® 20, M4N 10 mg/mL and 20 mg/mL)?
Its value is “more than 7 days”.

What about the “stable at room temperature” value ([1]; Tween® 20, M4N 40 mg/mL and 80 mg/mL) of the same molecule?
Its value is “less than 3 days”.

And the solution upon cooling ([1]; Tween® 20, M4N 80 mg/mL and 100 mg/mL)?
The solution upon cooling was “becoming insoluble upon cooling”.

And the “concentrations at which M4N remained in solution after cooling” value ([1]; Tween® 20, dissolved at 50° C.)?
The value was “up to 60 mg/mL”.

What about the “stable at room temperature” value ([1]; Tween® 80, M4N 1 mg/mL) of the same molecule?
Its value is “more than 3 days”.

What about the “stable at room temperature” value ([1]; Tween® 80, M4N 10 mg/mL) of the same molecule?
Its value is “more than 3 days”.

And the “stable at room temperature” value ([1]; Tween® 80, M4N 50 mg/mL)?
The value was “less than 1 day”.

And the “concentrations at which M4N remained in solution after cooling” value ([1]; Tween® 80, dissolved at 50° C.)?
Its value is “up to 50 mg/mL”.

And the T½ ([2]; Regimen A (oral, fed): 100 μg single oral dose following a high fat breakfast, 14C, baseline corrected, mean ± SD)?
Its T½ is 96.5 ± 20.7 h.

And the Cmax ([2]; Regimen A (oral, fed): 100 μg single oral dose following a high fat breakfast, 14C, baseline corrected, mean ± SD, read-out: Cmax)?
Its Cmax is 5.94 ± 1.33 pM.

And the Tmax ([2]; Regimen A (oral, fed): 100 μg single oral dose following a high fat breakfast, 14C, baseline corrected, median)?
The Tmax was 2.50^a hours.

And the T½ ([2]; Regimen B (oral, fasted): 100 μg single oral dose following an overnight fast, 14C, baseline corrected, mean ± SD)?
Its T½ is 50.9 ± 22.4 h.

And the Cmax ([2]; Regimen B (oral, fasted): 100 μg single oral dose following an overnight fast, 14C, baseline corrected, mean ± SD, read-out: Cmax)?
The Cmax was 9.29 ± 1.4 pM.

What about the Tmax ([2]; Regimen B (oral, fasted): 100 μg single oral dose following an overnight fast, 14C, baseline corrected, median) of the same molecule?
The Tmax was 1.00^a hours.

And the T½ ([2]; Regimen C (Intravenous): 100 μg as 1 mL bolus intravenous solution following an overnight fast, 14C, baseline corrected, mean ± SD)?
Its T½ is 116.2 ± 64.0 h.

What about the Cmax ([2]; Regimen C (Intravenous): 100 μg as 1 mL bolus intravenous solution following an overnight fast, 14C, baseline corrected, mean ± SD, read-out: Cmax) of the same molecule?
The Cmax was 10.3 ± 1.77 pM.

What about the Tmax ([2]; Regimen C (Intravenous): 100 μg as 1 mL bolus intravenous solution following an overnight fast, 14C, baseline corrected, median) of the same molecule?
Its Tmax is 0.08^a hours.

What about the Tmax ([2]; intravenous dose, eight of the ten subjects (first sampling time)) of the same molecule?
The Tmax was 0.08 h.

And the Tmax ([2]; intravenous dose, two subjects)?
Its Tmax is 0.17 h.

What about the Cmax ([2]; oral 100 μg 14C-labelled M4N after a high fat breakfast, mean±SD, read-out: Cmax for total 14C) of the same molecule?
The Cmax was 5.94 ± 1.33 pM.

What about the Cmax ([2]; oral 100 μg 14C-labelled M4N after an overnight fast, mean±SD, read-out: Cmax for total 14C) of the same molecule?
The Cmax was 9.29 ± 1.4 pM.

And the apparent absorption ([2]; oral administration, fed and fasted state)?
Its apparent absorption is “very high”.

And the Tmax ([2]; oral, fasted subjects)?
Its Tmax is ~1 h.

What about the Cmax ([2]; single intravenous dose 100 μg in 30% HP-β-CD, 25% PEG, mean±SD, read-out: Cmax for total 14C) of the same molecule?
The Cmax was 10.3 ± 1.77 pM.

And the “peak test article concentration in serum” value ([3]; Group 2, 45 mg/kg (10 mg/mL), 54-minute IV infusion)?
The value was 33420 ng/mL.

What about the “time of maximum concentration” value ([3]; Group 2, end of infusion) of the same molecule?
The value was 0.9 h.

What about the “peak test article concentration in serum” value ([3]; Group 3, 90 mg/kg (10 mg/mL), 108-minute IV infusion) of the same molecule?
Its value is 46704 ng/mL.

What about the “peak test article concentration in serum” value ([3]; Group 4, 45 mg/kg (5 mg/mL), 108-minute IV infusion) of the same molecule?
Its value is 18759 ng/mL.

And the “time of maximum concentration” value ([3]; Groups 3 and 4, end of infusion)?
Its value is 1.8 h.
